Laboratory results as given in BigSolDB 2.1.

CC(=O)c1ccc(O)cc1O
solubility (mole fraction)
Details	in benzene	in ethanol	in ethyl acetate	in isobutanol	in isopropanol	in methanol	in methyl acetate	in n-butanol	in n-propanol	in n-propyl acetate
293.15 K	0.00045	0.118	0.118	0.0782	0.13	0.103	0.114	0.104	0.106	0.11
298.15 K	0.00055	0.131	0.129	0.091	0.144	0.117	0.126	0.118	0.118	0.12
303.15 K	0.00067	0.146	0.139	0.107	0.162	0.132	0.141	0.133	0.135	0.129
308.15 K	0.00082	0.162	0.152	0.122	0.178	0.148	0.155	0.153	0.151	0.143
313.15 K	0.00102	0.177	0.166	0.139	0.194	0.163	0.168	0.172	0.167	0.155
318.15 K	0.00125	0.195	0.18	0.156	0.211	0.183	0.182	0.191	0.18	0.171
323.15 K	0.0015	0.216	0.199	0.18	0.231	0.203	0.201	0.214	0.195	0.189
328.15 K	0.00178	0.235	0.216	0.199	0.25	0.228	0.212	0.233	0.216	0.205
333.15 K	0.00207	0.257	0.236	0.221	0.271	0.253	–	0.253	0.233	0.222
